Reference: patent US8557816B2, “Aurora kinase modulators and method of use” (Amgen Inc., priority 2007, dated 2013)

Legend:
AuroraB = molecular target: T1, AuroraB (Homo sapiens, UniProt Q96GD4); assay: AuroraB Homogeneous Time Resolved Fluorescent (HTRF) kinase assay; assay type: biochemical; conditions: average; read-out: AurB_IC50_IP (uM Avg)
T1 construct: 20 μL of AuroraB FL H is for a final volume of 41 μL; His
In short: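 Read-out is time-resolved FRET between europium anti-phospho-H3 antibody and streptavidin-APC, added in EDTA buffer to stop the reaction and equilibrated about 60 min (ex 320, em 615 and 655 nm). Preceding reaction: ~90 min, full-length enzyme, ATP, 0.1 μM biotin-Histone H3 substrate, Mg/Mn HEPES buffer pH 7.5.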

AuroraA-TPX2 = molecular target: T2, AuroraA-TPX2 (Homo sapiens, UniProt O14965); assay: AuroraA-TPX2 Homogeneous Time Resolved Fluorescent (HTRF) kinase assay; assay type: biochemical; conditions: average; read-out: AurA_IC50_IP (uM Avg)
T2 construct: 20 μL of AuroraA-TPX2 KD GST for a final volume of about 41 μL; GST
T2 sequence (O14965 133-383 limits assumed): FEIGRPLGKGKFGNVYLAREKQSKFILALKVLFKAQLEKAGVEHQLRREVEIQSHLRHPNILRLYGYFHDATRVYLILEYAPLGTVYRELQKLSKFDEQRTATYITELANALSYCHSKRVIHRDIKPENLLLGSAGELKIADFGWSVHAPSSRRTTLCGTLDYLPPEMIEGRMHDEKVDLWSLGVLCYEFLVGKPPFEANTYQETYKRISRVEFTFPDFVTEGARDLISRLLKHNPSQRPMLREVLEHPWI
T2 sequence (Q9ULW0 1-43 partner limits assumed): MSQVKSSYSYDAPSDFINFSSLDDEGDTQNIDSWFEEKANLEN
In short: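 HTRF read-out (Eu 615 nm to APC 655 nm) of phosphorylated biotin-PLK, detected with 0.02 nM europium anti-phosphoPLK antibody and 0.0005 mg/mL SA-APC after overnight equilibration.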

T1 sequence (Q96GD4 whole entry): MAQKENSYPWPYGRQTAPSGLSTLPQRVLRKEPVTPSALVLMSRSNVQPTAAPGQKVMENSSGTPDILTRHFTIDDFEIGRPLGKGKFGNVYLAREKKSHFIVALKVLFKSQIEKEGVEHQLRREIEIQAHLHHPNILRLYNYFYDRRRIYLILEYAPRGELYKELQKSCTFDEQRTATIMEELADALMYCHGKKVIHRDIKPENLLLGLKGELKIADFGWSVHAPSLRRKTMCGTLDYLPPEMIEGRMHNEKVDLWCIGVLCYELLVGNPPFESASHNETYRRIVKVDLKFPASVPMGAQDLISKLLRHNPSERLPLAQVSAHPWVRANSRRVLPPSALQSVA

SMILES | IC50 (AuroraB) | IC50 (AuroraA-TPX2)
COc1cnc2c(Oc3ccc(Nc4nnc(-c5cc(Cl)cs5)c5ccccc45)cc3)ccnc2c1 [compound 298, 4-(4-chloro-2-thienyl)-N-(4-((7-(methyloxy)-1,5-naphthyridin-4-yl)oxy)phenyl)-1-phthalazinamine] | 0.023 µM | 0.014 µM
COc1cnc2c(Oc3ccc(Nc4nnc(-c5cccc(C)c5)c5ccccc45)cc3)ccnc2c1 [compound 299, N-(4-((7-(methyloxy)-1,5-naphthyridin-4-yl)oxy)phenyl)-4-(3-methylphenyl)-1-phthalazinamine] | 0.015 µM | 0.018 µM
CCc1cc(N2CC[C@H]3CCCC[C@@H]3C2)nnc1Nc1ccc(Oc2ccnc3cc(OC)cnc23)cc1 [compound 300, 4-ethyl-N-(4-((7-(methyloxy)-1,5-naphthyridin-4-yl)oxy)phenyl)-6-((4aR,8aS)-octahydro-2(1H)-isoquinolinyl)-3-pyridazinamine] | 0.067 µM | 0.112 µM
Clc1ccc(-c2nnc(Nc3ccc(Sc4ccnc5cc(Br)cnc45)cc3)c3ccccc23)cc1 [compound 301, N-(4-((7-bromo-1,5-naphthyridin-4-yl)thio)phenyl)-4-(4-chlorophenyl)-1-phthalazinamine] | 0.063 µM | 0.035 µM
COc1cnc2c(Sc3ccc(Nc4nnc(-c5ccc(Cl)cn5)c5ccccc45)cc3)ccnc2c1 [compound 304, 4-(5-chloro-2-pyridinyl)-N-(4-((7-(methyloxy)-1,5-naphthyridin-4-yl)thio)phenyl)-1-phthalazinamine] | 0.019 µM | 0.013 µM
COc1cnc2c(Oc3ccc(Nc4nnc(-c5ccc6c(c5)OCO6)c5ccccc45)cc3)ccnc2c1 [compound 306, 4-(1,3-benzodioxol-5-yl)-N-(4-((7-(methyloxy)-1,5-naphthyridin-4-yl)oxy)phenyl)-1-phthalazinamine] | 0.03 µM | 0.011 µM
CCc1cc(-c2ccc(C)cc2)nnc1Nc1ccc(Oc2ccnc3cc(OC)cnc23)cc1 [compound 307, 4-ethyl-N-(4-((7-(methyloxy)-1,5-naphthyridin-4-yl)oxy)phenyl)-6-(4-methylphenyl)-3-pyridazinamine] | 0.006 µM | 0.022 µM
Clc1ccc(-c2nnc(Nc3ccc(Sc4ccnc5cccnc45)cc3)c3ccccc23)cc1 [compound 308, 4-(4-chlorophenyl)-N-(4-(1,5-naphthyridin-4-ylthio)phenyl)-1-phthalazinamine] | 0.004 µM | 0.029 µM
c1ccc(-c2nnc(Nc3ccc(Sc4ccnc5cccnc45)cc3)c3ccccc23)cc1 [compound 309, N-(4-(1,5-naphthyridin-4-ylthio)phenyl)-4-phenyl-1-phthalazinamine] | 0.003 µM | 0.054 µM
c1ccc(-c2nnc(Nc3ccc(Sc4ccnc5ccccc45)cc3)c3ccccc23)cc1 [compound 310, 4-phenyl-N-(4-(4-quinolinylthio)phenyl)-1-phthalazinamine] | 0.017 µM | 0.209 µM
Cc1csc(-c2nnc(Nc3ccc(Sc4ccnc5cc(C(=O)N6CCOCC6)sc45)cc3)c3ccccc23)c1 [compound 312, (7-(4-(4-(4-methylthiophen-2-yl)phthalazin-1-ylamino)phenylthio)thieno[3,2-b]pyridin-2-yl)(morpholino)methanone] | 0.03 µM | 0.022 µM
O=C(c1cc2nccc(Sc3ccc(Nc4nnc(-c5ccccc5)c5ccccc45)cc3)c2s1)N1CCOCC1 [compound 313, morpholino(7-(4-(4-phenylphthalazin-1-ylamino)phenylthio)thieno[3,2-b]pyridin-2-yl)methanone] | 0.056 µM | 0.091 µM
O=C(c1cc2nccc(Sc3ccc(Nc4nnc(-c5ccc(Cl)cc5)c5ccccc45)cc3)c2s1)N1CCOCC1 [compound 314, (7-(4-(4-(4-chlorophenyl)phthalazin-1-ylamino)phenylthio)thieno[3,2-b]pyridin-2-yl)(morpholino)methanone] | 0.057 µM | 0.058 µM
COc1ccc2nccc(Sc3ccc(Nc4nnc(-c5ccc(Cl)cc5)c5ccccc45)cc3)c2c1 [compound 315, 4-(4-chlorophenyl)-N-(4-(6-methoxyquinolin-4-ylthio)phenyl)phthalazin-1-amine] | 0.031 µM | 0.036 µM
COc1cnc2c(Oc3ccc(Nc4nnc(-c5cc(Cl)cs5)c5ccccc45)cc3)ccnc2c1 [compound 316, 4-(4-chloro-2-thienyl)-N-(4-((7-(methyloxy)-1,5-naphthyridin-4-yl)oxy)phenyl)-1-phthalazinamine] | 0.023 µM | 0.014 µM
COc1cnc2c(Oc3ccc(Nc4nnc(-c5cccc(C)c5)c5ccccc45)cc3)ccnc2c1 [compound 317, N-(4-((7-(methyloxy)-1,5-naphthyridin-4-yl)oxy)phenyl)-4-(3-methylphenyl)-1-phthalazinamine] | 0.015 µM | 0.018 µM
COc1ccc2c(Cc3ccc(Nc4nnc(-c5ccccc5)c5ccccc45)cc3)ccnc2c1 [compound 319, N-(4-((7-(methyloxy)-4-quinolinyl)methyl)phenyl)-4-phenyl-1-phthalazinamine] | 0.02 µM | 0.176 µM
CCc1cc(N2CC[C@H]3CCCC[C@@H]3C2)nnc1Nc1ccc(Oc2ccnc3cc(OC)cnc23)cc1 [compound 320, 4-ethyl-N-(4-((7-(methyloxy)-1,5-naphthyridin-4-yl)oxy)phenyl)-6-((4aR,8aS)-octahydro-2(1H)-isoquinolinyl)-3-pyridazinamine] | 0.067 µM | 0.112 µM
CCc1cc(N2CCCCC2)nnc1Nc1ccc(Oc2ccnc3cc(OC)cnc23)cc1 [compound 321, 4-ethyl-N-(4-((7-(methyloxy)-1,5-naphthyridin-4-yl)oxy)phenyl)-6-(1-piperidinyl)-3-pyridazinamine] | 0.051 µM | 0.304 µM
CCc1cc(-c2ccc(C)cc2)nnc1Nc1ccc(Sc2ccnc3cc(OC)cnc23)cc1 [compound 322, 4-ethyl-N-(4-((7-(methyloxy)-1,5-naphthyridin-4-yl)thio)phenyl)-6-(4-methylphenyl)-3-pyridazinamine] | 0.032 µM | 0.033 µM
Clc1ccc(-c2nnc(Nc3ccc(Sc4ccnc5cc(Br)cnc45)cc3)c3ccccc23)cc1 [compound 324, N-(4-((7-bromo-1,5-naphthyridin-4-yl)thio)phenyl)-4-(4-chlorophenyl)-1-phthalazinamine] | 0.063 µM | 0.035 µM
COc1cnc2c(Sc3ccc(Nc4nnc(-c5ccc(Cl)cn5)c5ccccc45)cc3)ccnc2c1 [compound 325, 4-(5-chloro-2-pyridinyl)-N-(4-((7-(methyloxy)-1,5-naphthyridin-4-yl)thio)phenyl)-1-phthalazinamine] | 0.019 µM | 0.013 µM
COc1cc2c(Oc3ccc(Nc4nnc(-c5ccccc5)c5ccccc45)cc3)ccnc2cc1OCc1ccccc1 [compound 326, N-(4-((6-(methyloxy)-7-((phenylmethyl)oxy)-4-quinolinyl)oxy)phenyl)-4-phenyl-1-phthalazinamine] | 0.039 µM | 0.026 µM
COc1cccc(-c2nnc(Nc3ccc(Sc4ccnc5ccccc45)cc3)c3ccccc23)n1 [compound 327, 4-(6-(methyloxy)-2-pyridinyl)-N-(4-(4-quinolinylthio)phenyl)-1-phthalazinamine] | 0.014 µM | 0.118 µM
COc1ccc2c(Cc3ccc(Nc4nnc(-c5ccc(Cl)cc5)c5ccccc45)cc3)ccnc2c1 [compound 328, 4-(4-chlorophenyl)-N-(4-((7-(methyloxy)-4-quinolinyl)methyl)phenyl)-1-phthalazinamine] | 0.032 µM | 0.047 µM
c1ccc(-c2nnc(Nc3ccc(Sc4ccnc5[nH]ccc45)cc3)c3ccccc23)cc1 [compound 329, 4-phenyl-N-(4-(1H-pyrrolo[2,3-b]pyridin-4-ylthio)phenyl)-1-phthalazinamine] | 0.009 µM | 0.114 µM
Clc1ccc(-c2nnc(Nc3ccc(Sc4ccnc5[nH]ccc45)cc3)c3ccccc23)cc1 [compound 330, 4-(4-chlorophenyl)-N-(4-(1H-pyrrolo[2,3-b]pyridin-4-ylthio)phenyl)-1-phthalazinamine] | 0.009 µM | 0.038 µM
COc1ccc2c(Sc3ccc(Nc4nnc(-c5ccccc5)c5ccccc45)cc3)ccnc2c1 [compound 331, N-(4-((7-(methyloxy)-4-quinolinyl)thio)phenyl)-4-phenyl-1-phthalazinamine] | 0.155 µM | 0.192 µM
Clc1ccc(-c2nnc(Nc3ccc(Sc4ccnc5ccsc45)cc3)c3ccccc23)cc1 [compound 332, 4-(4-chlorophenyl)-N-(4-(thieno[3,2-b]pyridin-7-ylthio)phenyl)-1-phthalazinamine] | 0.003 µM | 0.016 µM
COc1ccc2c(Sc3ccc(Nc4nnc(-c5ccc(Cl)cc5)c5ccccc45)cc3)ccnc2c1 [compound 334, 4-(4-chlorophenyl)-N-(4-(7-methoxyquinolin-4-ylthio)phenyl)phthalazin-1-amine] | 0.067 µM | 0.049 µM
